Tested on: Escherichia coli strain ATCC25922
Test: standard microdilution assay to determine minimum inhibitory concentrations (MICs)
Assay type: cell-based
Settings: for E. coli ATCC25922 MIC: Escherichia coli strain ATCC25922, microdilution; for MIC: Escherichia coli, ATCC25922, Escherichia coli strain ATCC25922, microdilution, read-out: E. coli ATCC25922 MIC
In short: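 E. coli strain ATCC25922 tested per CLSI microdilution methodology (about 100 microliters per well) to find minimum inhibitory concentrations. Activity scored categorically at a 16 micrograms/ml threshold.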

Compound | E. coli ATCC25922 MIC | MIC [µg/mL]
CNCCN1CCCC(c2cc3cn(-c4ccc(CNCCCNC(=N)N)cc4)c(=O)nc3[nH]2)C1 (stereo not drawn) [Compound 2042a] | + (a “+” indicates that the compound has an MIC value of 16 micrograms/ml or less) | 
N=C(N)NCCCNCc1ccc(-n2cc3cc(-c4ccc(C(NC5CN(C(=N)N)C5)C(F)(F)F)cc4)[nH]c3nc2=O)cc1 (stereo not drawn) [Compound 1432] | + (a “+” indicates that the compound has an MIC value of 16 micrograms/ml or less) | 
NCCCCN1CCC(n2cc3c(nc2=O)[nH]c2ccccc23)CC1 [Compound 600] |  | > 16
N=C(N)NCCCNCc1ccc(-n2cc3cc(C4CCN(CC(F)CN)C4)[nH]c3nc2=O)cc1 (stereo not drawn) [Compound 2000a] | + (a “+” indicates that the compound has an MIC value of 16 micrograms/ml or less) | 
N=C(N)NCCCNCc1ccc(-n2cc3cc(-c4cc(CN5Cc6ccccc6C5)cc(N5CCNCC5)c4)[nH]c3nc2=O)cc1 [Compound 1050] | + (a “+” indicates that the compound has an MIC value of 16 micrograms/ml or less) | 
N=C(N)NCCCNCc1ccc(-n2cc3cc(C4CN(C(=N)N)CCO4)[nH]c3nc2=O)cc1 (stereo not drawn) [Compound 1335] |  | < 16
NCCCN(CCCN)Cc1ccc(-n2cc3cc(-c4ccc(S(=O)(=O)N(Cc5ccc(Cl)c(Cl)c5)C5CCNCC5)cc4)[nH]c3nc2=O)cc1 [Compound 235] |  | < 16
NCCCNCc1ccc(-c2cn3cc(-c4ccc(C(=O)NC5CCNCC5)cc4)[nH]c3nc2=O)cc1 [Compound 648] |  | < 16
N=C(N)NCCCNCc1ccc(-c2cn3nc(-c4ccc(F)cc4)[nH]c3nc2=O)cc1 [Compound 663] |  | > 16
N=C(N)NCCCNC(=O)c1ccc(-n2cc3cc(-c4ccc(S(=O)(=O)CCCNC5CCNC5)cc4)[nH]c3nc2=O)cc1 (stereo not drawn) [Compound 1350] | + (a “+” indicates that the compound has an MIC value of 16 micrograms/ml or less) | 
NCCCNCc1ccc(-c2cn3cc(-c4ccc(S(=O)(=O)N5CCNCC5)cc4)[nH]c3nc2=O)cc1 [Compound 789] |  | < 16
N=C(N)NCCCN(CCCN)Cc1ccc(-n2cc3cc(-c4ccc(C(=O)NC5CCNCC5)cc4)[nH]c3nc2=O)cc1 [Compound 217] |  | < 16
N=C(N)N[C@@H]1CCN(Cc2ccc(-n3cc4cc(-c5ccc(S(=O)(=O)N(CCCN6CCCCC6)C6CCNCC6)cc5)[nH]c4nc3=O)cc2)C1 [Compound 1201] | + (a “+” indicates that the compound has an MIC value of 16 micrograms/ml or less) | 
N=C(N)NCCCNCc1ccc(-n2cc3cc(-c4cc(OCC(F)CN)cc(-c5ccc([N+](=O)[O-])cc5)c4)[nH]c3nc2=O)cc1 (stereo not drawn) [Compound 2027a] | + (a “+” indicates that the compound has an MIC value of 16 micrograms/ml or less) | 
N=C(N)NCCCNCc1ccc(-c2cn3cc(-c4ccc(C(=O)N5CC[C@H](F)C5)cc4)[nH]c3nc2=O)cc1 [Compound 673] |  | > 16
N=C(N)NCCCNCc1ccc(-c2cn3cc(-c4ccc(S(=O)(=O)N5CCN(C(=O)OCc6ccccc6)CC5)cc4)[nH]c3nc2=O)cc1 [Compound 790] | + (a “+” indicates that the compound has an MIC value of 16 micrograms/ml or less) | 
CC(CN)CN1CCC(c2cc3cn(-c4ccc(CNCCCNC(=N)N)cc4)c(=O)nc3[nH]2)C1 (mixture of isomers) [Compound 2008a] | + (a “+” indicates that the compound has an MIC value of 16 micrograms/ml or less) | 
N#Cc1cc(CCCCN)cc(-c2cc3cn(-c4ccc(CNCCCNC(=N)N)cc4)c(=O)nc3[nH]2)c1 [Compound 2084a] | + (a “+” indicates that the compound has an MIC value of 16 micrograms/ml or less) | 
O=c1nc2[nH]c(-c3ccc(S(=O)(=O)NC4CCNCC4)c(Cl)c3)cc2cn1-c1ccc(CNCCCF)cc1 [Compound 261] |  | > 16
CN1CCC(NC(=O)c2ccc(-c3cc4cn(-c5ccc(CN(CCCN)CCCN)cc5)c(=O)nc4[nH]3)cc2)CC1 [Compound 204] |  | < 16
N=C(N)NCCCNCc1ccc(-n2cc3cc(CCS(=O)(=O)C4CCNCC4)[nH]c3nc2=O)cc1 [Compound 1240] |  | < 16
NCc1ccc(-n2cc3cc(-c4cccc(OCCCN5CCNCC5)c4)[nH]c3nc2=O)cc1 [Compound 1107] |  | > 16
N[C@@H]1CCCN(Cc2ccc(-n3cc4cc(-c5ccc(S(=O)(=O)NC6CCNCC6)cc5)[nH]c4nc3=O)cc2)C1 [Compound 1120] | − (a “−” indicates that the compound has an MIC value greater than 16 micrograms/ml) | 
N=C(N)NCCC(NCc1ccc(-n2cc3cc(-c4ccc(S(=O)(=O)NC5CNC5)cc4)[nH]c3nc2=O)cc1)C(F)(F)F (stereo not drawn) [Compound 1415] | + (a “+” indicates that the compound has an MIC value of 16 micrograms/ml or less) | 

Compound | E. coli ATCC25922 MIC | MIC [µg/mL]
N=C(N)NCCCNCc1ccc(-n2cc3cc(-c4ccc(S(=O)(=O)N(CCCC(N)=O)C5CCNCC5)cc4)[nH]c3nc2=O)cc1 [Compound 843] | + (a “+” indicates that the compound has an MIC value of 16 micrograms/ml or less) | 
COC(=O)C(N)Cc1cc2cn(-c3ccc(CN(CCCN)CCCN)cc3)c(=O)nc2[nH]1 (stereo not drawn) [Compound 169] |  | > 16
NCCCN1CC=C(c2cn3c(nc2=O)[nH]c2ccccc23)CC1 [Compound 587] |  | > 16
NCCCNCc1ccc(-n2cc3cc(-c4ccncc4)[nH]c3nc2=O)cc1 [Compound 633] |  | > 16
N=C(N)NCCCCOc1ccc(-c2cn3cc(-c4ccc(C(=O)NC5CCN(C(=N)N)CC5)cc4)[nH]c3nc2=O)cc1 [Compound 848] | + (a “+” indicates that the compound has an MIC value of 16 micrograms/ml or less) | 
N=C(N)NCCCNCc1ccc(-n2cc3cc(-c4cc(CCO)cc(OCC(F)CN)c4)[nH]c3nc2=O)cc1 (stereo not drawn) [Compound 2004a] | − (a “−” indicates that the compound has an MIC value greater than 16 micrograms/ml) | 
NCc1ccc(-n2cc3cc(-c4ccc(S(=O)(=O)N(Cc5ccc6nonc6c5)C5CCNCC5)cc4)[nH]c3nc2=O)cc1 [Compound 961] | − (a “−” indicates that the compound has an MIC value greater than 16 micrograms/ml) | 
CS(=O)(=O)c1ccc(-c2cc(OCC(F)CN)cc(-c3cc4cn(-c5ccc(CNCCCNC(=N)N)cc5)c(=O)nc4[nH]3)c2)cc1 (stereo not drawn) [Compound 2002a] | − (a “−” indicates that the compound has an MIC value greater than 16 micrograms/ml) | 
N=C(N)NCCCNC(c1ccc(-n2cc3cc(-c4ccc(S(=O)(=O)NC5CCNCC5)cc4)[nH]c3nc2=O)cc1)C(F)(F)F (stereo not drawn) [Compound 1015] | + (a “+” indicates that the compound has an MIC value of 16 micrograms/ml or less) | 
NCCCN1CC=C(c2cn3cc[nH]c3nc2=O)CC1 [Compound 571] |  | > 16
N=C(N)NCCCNCc1ccc(-n2cc3cc(-c4ccc(S(=O)(=O)CCCNC5CCNC5)cc4)[nH]c3nc2=O)cc1 (stereo not drawn) [Compound 1330] | + (a “+” indicates that the compound has an MIC value of 16 micrograms/ml or less) | 
N=C(N)NCCCNCc1ccc(-n2cc3cc(-c4ccc(S(=O)(=O)[C@H]5CCNC5)cc4)[nH]c3nc2=O)cc1 [Compound 1154] |  | < 16
NCCCNCc1ccc(-c2cn3cc(-c4ccc(F)cc4)[nH]c3nc2=O)cc1 [Compound 506] |  | > 16
CS(=O)(=O)NCCc1cc(OCC(F)CN)cc(-c2cc3cn(-c4ccc(CNCCCNC(=N)N)cc4)c(=O)nc3[nH]2)c1 (stereo not drawn) [Compound 2031a] | − (a “−” indicates that the compound has an MIC value greater than 16 micrograms/ml) | 
CN1CCN(C(=O)c2ccc(-c3cn4cc(-c5ccc(CNCCCNC(=N)N)cc5)c(=O)nc4[nH]3)cc2)CC1 [Compound 706] |  | < 16
CS(=O)(=O)NCc1cc(CCCCN)cc(-c2cc3cn(-c4ccc(CNCCCNC(=N)N)cc4)c(=O)nc3[nH]2)c1 [Compound 2090a] | + (a “+” indicates that the compound has an MIC value of 16 micrograms/ml or less) | 
N=C(N)NCCCNCc1ccc(-n2cc3cc(-c4ccc(S(=O)(=O)N(CCCn5cnnc5)C5CCNCC5)cc4)[nH]c3nc2=O)cc1 [Compound 856] | + (a “+” indicates that the compound has an MIC value of 16 micrograms/ml or less) | 
N=C(N)NCCCNCc1ccc(-n2cc3cc(-c4cccc(S(=O)(=O)N(CCN5CCCCC5)C5CCNCC5)c4)[nH]c3nc2=O)cc1 [Compound 1077] | + (a “+” indicates that the compound has an MIC value of 16 micrograms/ml or less) | 
N=C(N)NCCCNCc1ccc(-n2cc3cc(-c4cc(C(=O)N(CCO)CCO)cc(N5CCNCC5)c4)[nH]c3nc2=O)cc1 [Compound 895] | + (a “+” indicates that the compound has an MIC value of 16 micrograms/ml or less) | 
CNCc1ccc(-n2cc3cc(-c4ccc(S(=O)(=O)N(CCCN5Cc6ccccc6C5)C5CCNCC5)cc4)[nH]c3nc2=O)cc1 [Compound 1054] |  | > 16
N=C(N)NCCCNC(=O)c1ccc(-n2cc3cc(-c4ccc(S(=O)(=O)CCCNC5CCCOC5)cc4)[nH]c3nc2=O)cc1 (stereo not drawn) [Compound 1284] | − (a “−” indicates that the compound has an MIC value greater than 16 micrograms/ml) | 
CC(=O)NCCN1CCCC(c2cc3cn(-c4ccc(CNCCCNC(=N)N)cc4)c(=O)nc3[nH]2)C1 (stereo not drawn) [Compound 2018a] |  | < 16
N=C(N)NCCCCCn1cc2cc(-c3ccc(S(=O)(=O)NC4CCNCC4)cc3)[nH]c2nc1=O [Compound 887] |  | > 16
N=C(N)NCCCN(CCCN)Cc1ccc(-n2cc3cc(-c4ccc(S(=O)(=O)NC5CCNCC5)cc4F)[nH]c3nc2=O)cc1 [Compound 221] |  | < 16

— patent publication US9193731B2, “Antimicrobial compounds and methods of making and using the same” (Melinta Therapeutics, Inc., priority 2009, dated 2015)
